Each structure is given as a SMILES string. Activity calls are given as the source filed them. The rule behind the calls is not given here.

Experiment [1] has as its target T1, C-type lectin domain family 4 member E (Homo sapiens) (UniProt Q9ULY5).
T1 sequence (whole entry): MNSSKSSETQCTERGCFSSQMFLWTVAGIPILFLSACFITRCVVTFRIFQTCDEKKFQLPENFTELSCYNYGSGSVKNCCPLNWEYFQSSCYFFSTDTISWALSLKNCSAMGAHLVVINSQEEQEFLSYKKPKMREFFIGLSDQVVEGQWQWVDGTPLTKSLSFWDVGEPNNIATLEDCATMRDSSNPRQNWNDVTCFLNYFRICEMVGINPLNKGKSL
In words: Agonist activity at human mincle coupled with FcRgamma expressed in 2B4-NFAT-GFP reporter cells at 3 nmol/well after 16 hrs by flow cytometric analysis. The experiment is classed as cell-based. Background: In flow cytometry, cells or beads pass a laser one at a time.

For experiment [2], the target named is T2, C-type lectin domain family 4 member E (Mus musculus) (UniProt Q9R0Q8).
T2 sequence (whole entry): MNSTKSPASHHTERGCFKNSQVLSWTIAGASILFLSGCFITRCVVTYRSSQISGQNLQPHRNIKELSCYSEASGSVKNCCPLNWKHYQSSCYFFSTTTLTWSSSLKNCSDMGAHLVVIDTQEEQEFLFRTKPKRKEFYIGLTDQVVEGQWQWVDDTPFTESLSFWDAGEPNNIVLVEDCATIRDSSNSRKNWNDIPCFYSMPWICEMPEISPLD
In words: Agonist activity at mouse mincle coupled with FcRgamma expressed in 2B4-NFAT-GFP reporter cells at 3 nmol/well after 16 hrs by flow cytometric analysis. The experiment is classed as cell-based.

Regarding `CCCCCCC(CCCCCCCCCCC(=O)OC)O[C@@H]1O[C@H](CO)[C@H](O)[C@H](O)[C@H]1O` (some centres undefined), the outcome in experiment [1] and in experiment [2] was inactive.
Turning to `CCCCCCC(CCCCCCCCCCC(=O)OC)O[C@@H]1O[C@H](CO[C@H]2O[C@H](CO)[C@@H](O)[C@H](O)[C@H]2O)[C@@H](O)[C@H](O)[C@H]1O` (some centres undefined), the outcome in experiment [1] and in experiment [2] was inactive.
For the molecule `CCCCCCC(CCCCCCCCCCC(=O)OC)O[C@H]1O[C@H](CO)[C@@H](O)[C@H](O)[C@@H]1O` (some centres undefined), the outcome in experiment [1] and in experiment [2] was inactive.
In the case of `CCCCCCC(CCCCCCCCCCC(=O)OC)O[C@@H]1O[C@H](CO[C@H]2O[C@H](CO)[C@H](O)[C@H](O)[C@H]2O)[C@@H](O)[C@H](O)[C@H]1O` (some centres undefined), the outcome in experiment [1] and in experiment [2] was inactive.
For the molecule `CCCCCCC(CCCCCCCCCCC(=O)OC)O[C@@H]1O[C@H](CO)[C@@H](O[C@H]2O[C@H](CO)[C@@H](O)[C@H](O)[C@H]2O)[C@H](O)[C@H]1O` (some centres undefined), the result in experiment [1] and in experiment [2] was inactive.
Regarding `CCCCCCC(CCCCCCCCCCC(=O)OC)O[C@@H]1O[C@H](CO[C@@H]2O[C@H](CO)[C@@H](O)[C@H](O)[C@H]2O)[C@@H](O)[C@H](O)[C@H]1O` (some centres undefined), the outcome in experiment [2] was Active.
As for `CCCCCCC(CCCCCCCCCCC(=O)OC)O[C@@H]1O[C@H](CO)[C@@H](O[C@@H]2O[C@H](CO)[C@@H](O)[C@H](O)[C@H]2O)[C@H](O)[C@H]1O` (some centres undefined), the result in experiment [1] and in experiment [2] was inactive.
For the molecule `CCCCCCC(CCCCCCCCCCC(=O)OC)O[C@H]1O[C@H](CO)[C@@H](O)[C@H](O)[C@@H]1O[C@@H]1O[C@H](CO)[C@@H](O)[C@H](O)[C@@H]1O` (some centres undefined), the outcome in experiment [1] and in experiment [2] was Active.
Turning to `CCCCCCC(CCCCCCCCCCC(=O)OC)O[C@H]1O[C@H](CO)[C@@H](O)[C@H](O)[C@@H]1O[C@H]1O[C@H](CO)[C@@H](O)[C@H](O)[C@@H]1O` (some centres undefined), the result in experiment [1] and in experiment [2] was Active.
For `CCCCCCC(CCCCCCCCCCC(=O)OC)O[C@@H]1O[C@H](CO)[C@@H](O)[C@H](O)[C@@H]1O[C@H]1O[C@H](CO)[C@@H](O)[C@H](O)[C@@H]1O` (some centres undefined), the result in experiment [1] and in experiment [2] was Active.
`CCCCCCC(CCCCCCCCCCC(=O)OC)O[C@H]1O[C@H](CO)[C@@H](O)[C@H](O)[C@H]1O` (some centres undefined): the outcome in experiment [1] and in experiment [2] was inactive.
In the case of `CCCCCCC(CCCCCCCCCCC(=O)OC)O[C@@H]1O[C@H](CO)[C@@H](O)[C@H](O)[C@H]1O` (some centres undefined), the result in experiment [1] and in experiment [2] was inactive.
`CCCCCCC(CCCCCCCCCCC(=O)OC)O[C@@H]1O[C@H](CO)[C@@H](O)[C@H](O)[C@@H]1O[C@@H]1O[C@H](CO)[C@@H](O)[C@H](O)[C@@H]1O` (some centres undefined): the result in experiment [1] and in experiment [2] was Active.
Take `CCCCCCC(CCCCCCCCCCC(=O)OC)O[C@@H]1O[C@H](CO)[C@@H](O)[C@H](O)[C@@H]1O` (some centres undefined): the outcome in experiment [1] and in experiment [2] was inactive.
For `CCCCCCC(CCCCCCCCCCC(=O)OC)O[C@H]1O[C@H](CO)[C@H](O)[C@H](O)[C@H]1O` (some centres undefined), the result in experiment [1] and in experiment [2] was inactive.
